Experimental data taken from publication PMC9469208 (Journal of Medicinal Chemistry, 2022).

What was measured:
[1] = system: NMDA receptors (tonic NMDA currents)
[2] = system: maximal electroshock seizures in mice; settings: mouse, in vivo; cited from earlier work
[3] = system: PTZ-induced seizures in mice; settings: mouse, in vivo; cited from earlier work
[4] = system: 6 Hz (32 mA) seizures in mice; settings: mouse, in vivo; cited from earlier work

Structure (SMILES)	effect on tonic NMDA currents [1]	ED50 (MES) [2]	ED50 (scPTZ) [3]	ED50 (6 Hz 32 mA) [4]
NC(CCCP(=O)(O)O)C(=O)O (centres unmarked) [AP-5]	fully inhibited	–	–	–
C=C(C)[C@@H]1CCC(C)=C[C@H]1c1c(O)cc(CCCCC)cc1O [CBD, cannabidiol]	–	80 (65.5–96.0) mg/kg	120 (98.5–146) mg/kg	–
CCC1(C)CC(=O)NC1=O (centres unmarked) [ETX, ethosuximide]	–	–	140.4 (115.8–170.2) mg/kg	>200 mg/kg
